From PubChem BioAssay (NCI)
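Five compound concentrations were applied to cells in 96-well plates for 48 hours; endpoints were derived by simple linear interpolation of the resulting dose-response curve. Abbreviation: GI50, concentration required for 50% inhibition of growth. TGI: concentration producing complete growth inhibition.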

Legend:
Assay in all cases: NCI tumour cell line growth inhibition, 48 h
OVCAR-5 ovarian = test system: OVCAR-5 ovarian
NCI-H226 lung = test system: NCI-H226 lung
SR leukemia = test system: SR leukemia
RPMI-8226 leukemia = test system: RPMI-8226 leukemia
SNB-75 CNS = test system: SNB-75 CNS
U251 CNS = test system: U251 CNS
A549 NSCLC = test system: A549 NSCLC
HCC-2998 colon = test system: HCC-2998 colon
UO-31 renal = test system: UO-31 renal
ACHN renal = test system: ACHN renal
CCRF-CEM leukemia = test system: CCRF-CEM leukemia
KM12 colon = test system: KM12 colon
CAKI-1 renal = test system: CAKI-1 renal
MDA-MB-231 breast = test system: MDA-MB-231 breast
SF-295 CNS = test system: SF-295 CNS
SN12C renal = test system: SN12C renal
NCI/ADR-RES ovarian = test system: NCI/ADR-RES ovarian
MCF7 breast = test system: MCF7 breast
K-562 leukemia = test system: K-562 leukemia
SW-620 colon = test system: SW-620 colon
RXF 393 renal = test system: RXF 393 renal
OVCAR-8 ovarian = test system: OVCAR-8 ovarian
SK-MEL-2 melanoma = test system: SK-MEL-2 melanoma
M14 melanoma = test system: M14 melanoma
BT-549 breast = test system: BT-549 breast
786-0 renal = test system: 786-0 renal
OVCAR-4 ovarian = test system: OVCAR-4 ovarian
MOLT-4 leukemia = test system: MOLT-4 leukemia
DU-145 prostate = test system: DU-145 prostate
T-47D breast = test system: T-47D breast
SF-539 CNS = test system: SF-539 CNS
HCT-116 colon = test system: HCT-116 colon
UACC-62 melanoma = test system: UACC-62 melanoma
UACC-257 melanoma = test system: UACC-257 melanoma
IGROV1 ovarian = test system: IGROV1 ovarian
COLO 205 colon = test system: COLO 205 colon
EKVX NSCLC = test system: EKVX NSCLC
SK-OV-3 ovarian = test system: SK-OV-3 ovarian
NCI-H23 lung = test system: NCI-H23 lung
OVCAR-3 ovarian = test system: OVCAR-3 ovarian
TK-10 renal = test system: TK-10 renal
SNB-19 CNS = test system: SNB-19 CNS
HOP-62 NSCLC = test system: HOP-62 NSCLC
MALME-3M melanoma = test system: MALME-3M melanoma
PC-3 prostate = test system: PC-3 prostate
NCI-H460 lung = test system: NCI-H460 lung
HS 578T breast = test system: HS 578T breast
HOP-92 NSCLC = test system: HOP-92 NSCLC
NCI-H522 lung = test system: NCI-H522 lung
LOX IMVI melanoma = test system: LOX IMVI melanoma
HT29 colon = test system: HT29 colon
SK-MEL-5 melanoma = test system: SK-MEL-5 melanoma
HL-60(TB) leukemia = test system: HL-60(TB) leukemia
HCT-15 colon = test system: HCT-15 colon
A498 renal = test system: A498 renal
SF-268 CNS = test system: SF-268 CNS
SK-MEL-28 melanoma = test system: SK-MEL-28 melanoma
MDA-MB-435 = test system: MDA-MB-435

In the case of `Cn1c(=O)c2c(ncn2CC(=O)Nc2ccc(-c3ccccc3)nn2)n(C)c1=O`, the GI50 (OVCAR-5 ovarian) is reported as > 100 µM, the TGI (OVCAR-5 ovarian) is reported as > 100 µM and the GI50 (NCI-H226 lung) is reported as > 100 µM. For the same compound, the TGI (NCI-H226 lung) was > 100 µM, the GI50 (SR leukemia) was 42.9 µM and the TGI (SR leukemia) was > 100 µM. For the same compound, the GI50 (RPMI-8226 leukemia) was > 100 µM, the TGI (RPMI-8226 leukemia) was > 100 µM and the GI50 (SNB-75 CNS) was > 100 µM. For the same compound, the TGI (SNB-75 CNS) was > 100 µM, the GI50 (U251 CNS) was > 100 µM and the TGI (U251 CNS) was > 100 µM. The GI50 (A549 NSCLC) was > 100 µM, the TGI (A549 NSCLC) was > 100 µM and the GI50 (HCC-2998 colon) was > 100 µM. For the same compound, the TGI (HCC-2998 colon) was > 100 µM, the GI50 (UO-31 renal) was > 100 µM and the TGI (UO-31 renal) was > 100 µM. For the same compound, the GI50 (ACHN renal) was > 100 µM, the TGI (ACHN renal) was > 100 µM and the GI50 (CCRF-CEM leukemia) was > 100 µM. For the same compound, the TGI (CCRF-CEM leukemia) was > 100 µM, the GI50 (KM12 colon) was > 100 µM and the TGI (KM12 colon) was > 100 µM. For the same compound, the GI50 (CAKI-1 renal) was > 100 µM, the TGI (CAKI-1 renal) was > 100 µM and the GI50 (MDA-MB-231 breast) was 23.1 µM. The TGI (MDA-MB-231 breast) was > 100 µM, the GI50 (SF-295 CNS) was > 100 µM and the TGI (SF-295 CNS) was > 100 µM. The GI50 (SN12C renal) was > 100 µM, the TGI (SN12C renal) was > 100 µM and the GI50 (NCI/ADR-RES ovarian) was > 100 µM. The TGI (NCI/ADR-RES ovarian) was > 100 µM, the GI50 (MCF7 breast) was > 100 µM and the TGI (MCF7 breast) was > 100 µM. The GI50 (K-562 leukemia) was > 100 µM, the TGI (K-562 leukemia) was > 100 µM and the GI50 (SW-620 colon) was > 100 µM. For the same compound, the TGI (SW-620 colon) was > 100 µM, the GI50 (RXF 393 renal) was 48.3 µM and the TGI (RXF 393 renal) was > 100 µM. For the same compound, the GI50 (OVCAR-8 ovarian) was > 100 µM, the TGI (OVCAR-8 ovarian) was > 100 µM and the GI50 (SK-MEL-2 melanoma) was > 100 µM. The TGI (SK-MEL-2 melanoma) was > 100 µM, the GI50 (M14 melanoma) was 10.4 µM and the TGI (M14 melanoma) was > 100 µM. For the same compound, the GI50 (BT-549 breast) was > 100 µM, the TGI (BT-549 breast) was > 100 µM and the GI50 (786-0 renal) was > 100 µM. The TGI (786-0 renal) was > 100 µM, the GI50 (OVCAR-4 ovarian) was > 100 µM and the TGI (OVCAR-4 ovarian) was > 100 µM. For the same compound, the GI50 (MOLT-4 leukemia) was > 100 µM, the TGI (MOLT-4 leukemia) was > 100 µM and the GI50 (DU-145 prostate) was > 100 µM. The TGI (DU-145 prostate) was > 100 µM, the GI50 (T-47D breast) was 75.6 µM and the TGI (T-47D breast) was > 100 µM. For the same compound, the GI50 (SF-539 CNS) was > 100 µM, the TGI (SF-539 CNS) was > 100 µM and the GI50 (HCT-116 colon) was > 100 µM. The TGI (HCT-116 colon) was > 100 µM, the GI50 (UACC-62 melanoma) was 84.7 µM and the TGI (UACC-62 melanoma) was > 100 µM. For the same compound, the GI50 (UACC-257 melanoma) was > 100 µM, the TGI (UACC-257 melanoma) was > 100 µM and the GI50 (IGROV1 ovarian) was > 100 µM. The TGI (IGROV1 ovarian) was > 100 µM, the GI50 (COLO 205 colon) was > 100 µM and the TGI (COLO 205 colon) was > 100 µM. The GI50 (EKVX NSCLC) was > 100 µM, the TGI (EKVX NSCLC) was > 100 µM and the GI50 (SK-OV-3 ovarian) was > 100 µM. For the same compound, the TGI (SK-OV-3 ovarian) was > 100 µM, the GI50 (NCI-H23 lung) was > 100 µM and the TGI (NCI-H23 lung) was > 100 µM. For the same compound, the GI50 (OVCAR-3 ovarian) was > 100 µM, the TGI (OVCAR-3 ovarian) was > 100 µM and the GI50 (TK-10 renal) was > 100 µM. For the same compound, the TGI (TK-10 renal) was > 100 µM, the GI50 (SNB-19 CNS) was > 100 µM and the TGI (SNB-19 CNS) was > 100 µM. For the same compound, the GI50 (HOP-62 NSCLC) was > 100 µM, the TGI (HOP-62 NSCLC) was > 100 µM and the GI50 (MALME-3M melanoma) was > 100 µM. The TGI (MALME-3M melanoma) was > 100 µM, the GI50 (PC-3 prostate) was > 100 µM and the TGI (PC-3 prostate) was > 100 µM. The GI50 (NCI-H460 lung) was > 100 µM, the TGI (NCI-H460 lung) was > 100 µM and the GI50 (HS 578T breast) was > 100 µM. The TGI (HS 578T breast) was > 100 µM, the GI50 (HOP-92 NSCLC) was > 100 µM and the TGI (HOP-92 NSCLC) was > 100 µM. For the same compound, the GI50 (NCI-H522 lung) was > 100 µM, the TGI (NCI-H522 lung) was > 100 µM and the GI50 (LOX IMVI melanoma) was > 100 µM. For the same compound, the TGI (LOX IMVI melanoma) was > 100 µM, the GI50 (HT29 colon) was > 100 µM and the TGI (HT29 colon) was > 100 µM. For the same compound, the GI50 (SK-MEL-5 melanoma) was 62.6 µM, the TGI (SK-MEL-5 melanoma) was > 100 µM and the GI50 (HL-60(TB) leukemia) was 49.9 µM. For the same compound, the TGI (HL-60(TB) leukemia) was > 100 µM, the GI50 (HCT-15 colon) was > 100 µM and the TGI (HCT-15 colon) was > 100 µM. The GI50 (A498 renal) was 54.1 µM, the TGI (A498 renal) was > 100 µM and the GI50 (SF-268 CNS) was > 100 µM. For the same compound, the TGI (SF-268 CNS) was > 100 µM, the GI50 (SK-MEL-28 melanoma) was > 100 µM and the TGI (SK-MEL-28 melanoma) was > 100 µM. The GI50 (MDA-MB-435) was > 100 µM and the TGI (MDA-MB-435) was > 100 µM.
